Data published in patent publication US20100266591A1, “METHOD OF TREATING ERYTHROPOIETIN HYPORESPONSIVE ANEMIAS” (priority 2008, published 2010).
Entries after “also recorded” stand apart in the source; their conditions may differ. Values belong to the molecule of their own block, whether it stands above or below them.

Tests used:
[1] = per mg of protein; cited from earlier work
UT7 cells [2] = assay: UT7 cell proliferation assay; assay type: cell-based, human
Method: Particularly useful in identifying and calibrating compositions useful in the method of the invention is the UT7 cell proliferation assay. The UT7 is a human leukemic cell line that has been adapted to become EPO-dependant. In order to use the UT7 cell proliferation assay for selection of a composition or a dose to be administered to a subject having low blood hemoglobin content, the cells are washed free or normal culture medium and starved for EPO for 24 hours prior to assay. For example, the UT-7 cell starvation can proceed in IMDM media with added L-glutamine and FBS at 5% (I5Q). The cells are then prepared and suspended in the appropriate media to a final concentration of 6×10^5 cells/mL (yields a final concentration of 30,000 cells per 96-well chamber). An EPO standard is prepared by diluting EPO stock to 5 ng/mL followed by 1:2 serial dilutions down to a concentration of 0.0098 ng/mL in I5Q media. […] Cell proliferation is assessed using a vital stain such as Promega's MTS solution (Promega, Madison, Wis.) according to the manufacturer's instructions. The EC50 is calculated from a curve fit of concentration vs proliferation as measured by the increase in absorbance of the chromophore or other signal. […]
Using UT-7 cells, which display EPO-R and require an ESA for proliferation, competitive binding for the human EPO-R between CNTO 530 inhibited and ^125I-EPO was measured. […]

C57Bl/6 mice = assay: Hgb response in C57Bl/6 mice (Example 1); assay type: in vivo, mouse
Excerpt: (§1) To comparative the pharmacodynamics of epoetin-α in C57Bl/6 and Tg197 mice, study animals were assigned to groups as shown in Table 1. On Day 0 the mice received a weight-adjusted, subcutaneous injection of test article (freshly diluted from stock) or PBS. Mice were euthanized by CO2 asphyxiation and blood was collected for each sample.
Hematology: Blood samples from mice in the model characterization and pharmacodynamic studies were collected at the times indicated in Tables 1 and 2. Blood was collected from mice anesthetized with a CO2 mixture via open chest cardiac puncture into commercially prepared EDTA coated microtubes. Blood analyses were performed on whole blood using the ADVIA 120 blood analyzer (Bayer Diagnostics, Tarrytown, N.Y.). Data are expressed as group mean±standard deviation. Results: Data are expressed as the group mean and standard deviation or as group mean change from control. Mean values for the PBS control mice were used as the Day 1 baseline. For graphing, the nominal day may differ from the actual day of blood sampling by 1 day. Mean (±standard deviation) hematological data for 30 CBF1 and 50 Tg197 PBS control mice (9 to 13 weeks old) are shown in Table 3.

W/Wv mice = assay: Hgb response in c-kit deficient (W/Wv) mice; assay type: in vivo, mouse; details: single subcutaneous dose, 12,000 U/kg
Method: Materials and Methods. Male and female WBB6F1/J-KitW/KitW-v (black eyed, white coat, affected; Related genotype ala KitW/KitW-v) (W/Wv) mice were obtained from Jackson Laboratories, Bar Harbor, Me. at 5 to 7 weeks of age. These mice are deficient in c-kit the receptor for SCF. The mice were group housed in filter topped plastic shoe-box style cages. CNTO 530 (30 UT-7 Units/ug) and epoetin-α (120 UT-7 Units/ug) were tested and PBS pH 7.4 was used as the control article. Study Design: On Day 1 mice received a weight-adjusted, subcutaneous (s.c.) dose of epoetin-α, CNTO 530 or PBS (10 mL/kg) according to Table 4. Three mice/sex were bled per group at each designated time point according to Table 4. On Days 4, 9, 14, and 28 (males) or 30 (females), mice were anesthetized with CO2 and blood samples ([…]) taken via open chest cardiac puncture for hematology. Blood was collected directly into tubes prepared with EDTA and mixed thoroughly for approximately 10 seconds and placed on a rocker to prevent coagulation. Whole blood was be analyzed using an ADVIA 120 hematology analyzer.
Results. Data are expressed as the group mean and standard deviation or as group mean change from control. Mean values for the PBS control mice were used as the Day 1 baseline. For graphing, the nominal day may differ from the actual day of blood sampling by 1 day.

ala +/+ mice = assay: Hgb response in normal ala +/+ littermates; assay type: in vivo, mouse; details: single subcutaneous dose, 12,000 U/kg
Tg197 mice = assay: Hgb response in Tg197 mice (anemia of chronic disease); assay type: in vivo, mouse
Excerpt: The pharmacodynamics of epoetin-α in C57Bl/6 and Tg197 mice was first compared. Secondly, CNTO 530, epoetin-α and darbepoetin in Tg197 mice was compared.
Materials and Methods. Nine-week old heterozygous Tg197-CBA F1 transgenic mice, age-matched C57Bl/6 mice and age-matched CBA-057Bl/6 F1 hybrid (CBF1) mice were obtained from Ace Laboratories (Boyertown, Pa.), Ace Laboratories and Jackson Laboratories (Bar Harbor, Me.), respectively. Founder Tg197 mice for the transgenic colony was obtained from G. Kollias. The breeding stock was maintained as homozygotes and received weekly injections of murine anti-human TNFa antibodies (10 mg/kg intraperitoneally) to control their arthritis. For these experiments, homozygous Tg197 males were bred to CBA females. CBF1 mice were used because their disease progresses more slowly than that seen in homozygous Tg197 mice. The mice were group housed (4 per cage) in filter-topped plastic shoebox style cages. The animals were individually identified with ear tags, placed at least a week prior to the start of the study. […] All mice were maintained in the pathogen-free vivarium at Centocor R&D, Inc., Radnor Pa. The Institutional Animal Care and Use Committee at Centocor approved all associated procedures.
CNTO 530, recombinant human erythropoietin (epoetin-α, OrthoBiotech, Raritian N.J.), darbepoetin (Amgen, Thousand Oaks, Calif.), and PBS. Doses were expressed as mg/kg or UT-7 Units/kg (U/kg).
as §1, with “sample. […]” for “sample.”
Hematology: Blood samples from mice in the model characterization and pharmacodynamic studies were collected at the times indicated in Tables 1 and 2. […] Data are expressed as group mean±standard deviation. Results: Data are expressed as the group mean and standard deviation or as group mean change from control. […]

normal rats = details: single subcutaneous dose, compared to rhEPO and darbepoetin; cited from earlier work
[3] = cited from earlier work
UT7 cells [4] = details: UT-7EPO cells; cited from earlier work
[5] = molecular target: T1, EPO-receptor (form in the assay not stated) (human, UniProt P19235 25-508, limits assumed); assay: assay not stated
T1 sequence: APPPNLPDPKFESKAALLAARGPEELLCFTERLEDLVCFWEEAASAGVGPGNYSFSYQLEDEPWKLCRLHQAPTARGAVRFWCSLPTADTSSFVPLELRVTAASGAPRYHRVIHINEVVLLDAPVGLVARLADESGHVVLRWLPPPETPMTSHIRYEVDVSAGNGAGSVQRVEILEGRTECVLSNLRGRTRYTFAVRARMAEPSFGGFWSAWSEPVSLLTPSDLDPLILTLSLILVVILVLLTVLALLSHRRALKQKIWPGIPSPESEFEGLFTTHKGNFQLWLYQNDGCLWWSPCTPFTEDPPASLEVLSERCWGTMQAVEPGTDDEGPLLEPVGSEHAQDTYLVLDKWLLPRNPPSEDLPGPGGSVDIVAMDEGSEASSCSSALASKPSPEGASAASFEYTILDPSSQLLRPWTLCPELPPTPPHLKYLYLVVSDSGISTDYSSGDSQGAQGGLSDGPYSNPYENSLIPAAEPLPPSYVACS

[6] = molecular target: T2, human EPO-R displayed on UT-7 cells (human, UniProt P19235 25-508); assay: competitive binding against 125I-EPO (0.5 nM) on UT-7 cells displaying human EPO-R
T2 construct: Endogenous receptor on UT-7 human leukemic cells; also called erythropoietin receptor; human EPO receptor
T2 sequence: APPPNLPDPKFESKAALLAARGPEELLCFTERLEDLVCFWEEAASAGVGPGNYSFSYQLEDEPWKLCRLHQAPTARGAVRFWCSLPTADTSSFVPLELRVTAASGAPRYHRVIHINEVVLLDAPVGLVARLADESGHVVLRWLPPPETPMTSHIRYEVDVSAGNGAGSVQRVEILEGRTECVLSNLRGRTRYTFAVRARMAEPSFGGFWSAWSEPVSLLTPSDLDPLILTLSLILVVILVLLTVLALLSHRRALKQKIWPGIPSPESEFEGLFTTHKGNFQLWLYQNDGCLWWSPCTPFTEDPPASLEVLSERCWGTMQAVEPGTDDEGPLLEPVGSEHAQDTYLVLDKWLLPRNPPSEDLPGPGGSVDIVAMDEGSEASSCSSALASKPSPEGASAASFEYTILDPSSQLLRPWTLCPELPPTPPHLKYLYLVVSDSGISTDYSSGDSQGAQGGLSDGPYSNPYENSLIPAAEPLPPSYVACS
Method: Using UT-7 cells, which display EPO-R and require an ESA for proliferation, competitive binding for the human EPO-R between CNTO 530 inhibited and ¹²⁵I-EPO was measured.

[7] = molecular target: T2, human EPO-R displayed on UT-7 cells; assay: cell-based or functional assay

Molecule: Human urinary EPO: isolated human urinary EPO, international reference standard for EPO assays
- specific activity [1]: about 70,000 U/mg

Molecule: epoetin-α: recombinant human erythropoietin (OrthoBiotech), 166 amino acid sequence SEQ ID NO: 1
- in vitro activity (UT7 cells [2]): 120 UT-7 Units/ug
- EC50 (UT7 cells [2]; 48 hours, MTS): ~0.018 nM
- day Hgb returned to baseline (C57Bl/6 mice; 0.3 mg/kg s.c., single dose): 15 days
- increase in Hgb (C57Bl/6 mice; 0.3 mg/kg s.c., single dose): ~1.5 g/dL
- Hgb response (C57Bl/6 mice; 0.03 and 0.3 mg/kg s.c.): dose-dependent increase in hemoglobin
- increase in hemoglobin (W/Wv mice): less than 1 g/dL
- increase in Hgb (ala +/+ mice): approximately 2 g/dL
- specific activity [1]: 100,000 to 200,000 U/mg
- Hgb response (increase) (Tg197 mice; 0.3 mg/kg s.c., single dose): ~1 g/dL
- day Hgb returned to baseline (Tg197 mice; 0.3 mg/kg s.c., single dose): ≤ 8 days
- Hgb response (Tg197 mice; single s.c. dose, comparison at 30,000 U/kg): little dose response between 0.03 and 0.3 mg/kg

Molecule: CNTO 528: EPO-mimetic peptide antibody fusion protein; disulfide-linked homodimer of SEQ ID NO: 2, two EMP1 copies and portions of human IgG
- hematology response / efficacy (normal rats): longer-lived reticulocytosis and a longer-lived increase in hemoglobin; also recorded: only minor changes in red cell distribution width (RDW) or mean cell volume (MCV); also recorded: no effect on mean platelet volume (MPV); also recorded: efficacious in rat models of anemia and in a rat model of pure red cell aplasia
- pharmacodynamic response ([3]; IV 0.03-0.9 mg/kg): prolonged, dose-dependent erythropoietic responses; also recorded: dose dependent increase in RBC count; also recorded: dose-dependent increase in soluble transferrin receptor concentration; also recorded: dose-dependent increase in endogenous EPO concentration
- tolerability ([3]; IV 0.03-0.9 mg/kg): well tolerated
- pharmacokinetics ([3]; IV): linear and approximately dose proportional
- mean Hgb concentration above baseline at last measurement ([3]; approximately 2.5 months after a single dose): 0.4 g/dL
- immunogenicity ([3]; human, in vivo): No immunogenicity was observed
- time of maximum effect on Hgb concentration ([3]; single IV dose): 22 days
- fold less potent than rhEPO on a molar basis, growth stimulation (UT7 cells [4]): approximately 10 fold

- Kd [5]: ~10 nM
- IC50 [6]: ~60 nM
- induction of UT-7 cell proliferation (EC50) [7]: ~0.055 nM
- potency against rHuEPO in a simple proliferation assay using UT-7 cells [7]: ~24 fold less potent than rHuEPO (molar)
- rescue of EPO-deprived UT-7 cells from apoptosis (EC50) [7]: ~0.021 nM
B1: CNTO 530 (Fc fusion)
chain: QIQGGTYSCHFGPLTWVCKPQGGGSCPPCPAPEAAGGPSVFLFPPKPKDTLMISRTPEVTCVVVDVSQEDPEVQFNWYVDGVEVHNAKTKPREEQFNSTYRVVSVLTVLHQDWLNGKEYKCKVSNKGLPSSIEKTISKAKGQPREPQVYTLPPSQEEMTKNQVSLTCLVKGFYPSDIAVEWESNGQPENNYKTTPPVLDSDGSFFLYSRLTVDKSRWQEGNVFSCSVMHEALHNHYTQKSLSLSLGK
notes: EPO-mimetic peptide antibody fusion protein; Homodimer joined by disulfide bonds through cysteines in the immunoglobulin-derived portion; May or may not be glycosylated; also called Dimeric EMP1 construct: CNTO 530
